Experimental findings from PMC5007466, “VCP recruitment to mitochondria causes mitophagy impairment and neurodegeneration in models of Huntington's disease” (Nature Communications, 2016) are described below.

SMILES strings stand for the structures.

Experiment [1] has as its system VCP/Htt interaction (GST-VCP with full-length Htt of mouse brain lysate). Put plainly: GST pull-down of VCP/Htt interaction. In kind it is binding. The conditions noted are these: GST-VCP + total mouse brain lysate, 3 µM peptide, 16 h, n = 3. The protocol: Bacteria-expressed GST or GST–VCP, or GST–VCP truncated mutants were immobilized on glutathione-Sepharose 4B beads (GE Healthcare) for three hours and then washed three times. Beads were incubated with total lysates of mouse brains overnight at 4 °C. Beads were then washed with a GST binding buffer (100 mM NaCl, 50 mM NaF, 2 mM EDTA, 1% Triton-X-100 and protease inhibitor cocktail) and were analysed by SDS–PAGE and IB.
Supplementary Figure 4: Rational design of a peptide inhibitor to block VCP/Htt interaction. (a) GST or GST-VCP was incubated with total lysates of mouse brain and the indicated peptides ( 3 µM) for 16 hours, followed by immunoblotting with anti-Htt antibodies. Representative blots are from three independent experiments. Quantitation of VCP/Htt binding was shown below the blot as the m ean of three independent experiments. Data are mean ± SEM. *, p<0.05 vs. T AT -treated group (Paired Student’s t test). (b) HEK293 cells were co-expressed with GFP-VCP and Myc-73Q FL plasmids as indicated. After 48 hours incubation with the indicated peptides ( 3 µM/day, each), immunoprecipitation analysis was performed. The shown blots are from three independent experiments. (c) HEK293 cells were co-expressed with GFP-VCP and Myc-73Q FL plasmids as indicated. […] The blots of the bindings of mtHtt/VCP were quantitated with NIH Image J software. The IC50 was calculated. […]

Experiment [2] has as its system interaction of mtHtt with Tim23. Nature of the experiment: Co-immunoprecipitation mtHtt/Tim23. The following applies: HV-3 treatment; total cell lysates, IP/WB. It is filed as cell-based. The protocol:
(b) Stick drawings of VCP and Htt main domains. […] Immunoprecipitates were analysed by WB with the indicated antibodies. […] VCP mitochondrial levels were determined by WB. Loading control: VDAC. Data are mean±s.e.m. (g–i) ANOVA with Holm-Sidak post hoc test.

The subject of experiment [3] is HD patient-iPS cell derived neurons. Nature of the experiment: Mitochondrial length along neurites. In kind it is cell-based, human. The following applies: 1 μM per day for 5 days. Here is the method:
(§1) iPS cells from a normal subject and a HD patient (carrying 41 CAG repeats) were differentiated into neurons using the protocol from our previous studies. Briefly, iPS cells were plated onto 6-well plates precoated with 2.5% Matrigel and allowed to reach 90% confluence in feeder-free medium. For the first 10 days, cells were treated with SB431542 (10 μM; Tocris Bioscience) and Noggin (100 ng/ml) in Neural Media (NM) containing Neurobasal and DMEM (1:1), B27 supplement minus vitamin A (50 × , Invitrogen), N2 supplement (100 × , Invitrogen), GlutaMax (Invitrogen, 100 × ), FGF2 ([…]) and EGF ([…]), 100 units per ml penicillin and 100 μg ml^−1 streptomycin). For the next 10 days, cells were treated with human recombinant Sonic hedgehog (SHH, 200 ng/ml), DKK1 (100 ng/ml) and BDNF (20 ng/ml) and 10 μM Y27632 (Sigma) in neuronal differentiation medium containing Neurobasal and DMEM (1:3), B27, N2, GlutaMax and PS. […]
In patient-iPS cell-derived neurons, to ensure the observation of mitochondria in the medium spiny neurons, the cells were stained with a mitochondrial marker (anti-TOM20, 1:500) and markers for medium spiny neurons (DARPP-32, 1:200, Epitomics). The quantitation of neurite length was conducted only in the neurons immunopositive for both DARPP-32 and Tuj1 (neuron-specific class III beta-tubulin, 1:5,000, Covance). At least 50 neurons/group were counted.

For experiment [4] the test system is unchanged. Put plainly: Mitochondrial mass (Mitotracker green). In kind it is cell-based, human. The conditions noted are these: 1 μM per day for 5 days. The protocol:
as §1, with “streptomycin).” for “streptomycin). For the next 10 days, cells were treated with human recombinant Sonic hedgehog (SHH, 200 ng/ml), DKK1 (100 ng/ml) and BDNF (20 ng/ml) and 10 μM Y27632 (Sigma) in neuronal differentiation medium containing Neurobasal and DMEM (1:3), B27, N2, GlutaMax and PS.”
To determine mitochondrial mass in cultures, cells were stained with antibodies against Tom20 or stained with Mitotracker green. The fluorescent density of Tom20 (1:500) or mitotracker green was quantitated using NIH Image J software. […] The images were visualized by microscope and quantitation of the density of red fluorescence was carried out using NIH ImageJ software. For immunocytochemistry study, at least 100 cells per group were counted and quantitated by an observer blind to experimental conditions.

Turning to `CSCC[C@H](NC(=O)[C@@H](NC(=O)[C@H](CC(C)C)NC(=O)[C@@H](NC(=O)[C@H](Cc1c[nH]cn1)NC(=O)CCCCCNC(=O)[C@H](CCCNC(=N)N)NC(=O)[C@H](CCCNC(=N)N)NC(=O)[C@H](CCCNC(=N)N)NC(=O)[C@H](CCC(N)=O)NC(=O)[C@H](CCCNC(=N)N)NC(=O)[C@H](CCCNC(=N)N)NC(=O)[C@H](CCCCN)NC(=O)[C@H](CCCCN)NC(=O)[C@H](CCCNC(=N)N)NC(=O)CNC(=O)[C@@H](N)Cc1ccc(O)cc1)C(C)C)C(C)C)C(=O)N[C@@H](CS)C(=O)N[C@@H](C)C(=O)N[C@H](C(N)=O)[C@@H](C)O` [HV-3], the “block of VCP/Htt interaction” value in experiment [1] was “only the addition of peptide HV-3 blocks the interaction of VCP/Htt”. The “interaction of mtHtt with Tim23” value in experiment [2] is “did not influence the interaction of mtHtt with Tim23”. The “mitochondrial length along neurites” value in experiment [3] is “improved MMP and mitochondrial length along neurites”. For the same compound, the mitochondrial mass result in experiment [4] is “corrected these aberrant events”.
